Bridges are numbered along the chain shown (N, C = ends). Where no end group is shown, it is not given here.
Key:
[1] = test system: vascular cell adhesion protein-1 (VCAM1); assay: Western blot total protein VCAM1; type: cell-based; settings: 48 h TGF-β1, AF38Pep or TGF-β1+AF38Pep
[2] = test system: ERK1/2 in NIH/3T3 fibroblasts; assay: Western blot ERK1/2 phosphorylation; type: cell-based, mouse; settings: TGF-β1 10 ng/mL, AF38Pep 10 µg/mL
Protocol: Total protein was extracted from cells in RIPA lysis buffer containing 1% protease inhibitor cocktail, 1% phenylmethylsulfonyl fluoride, and 1% sodium orthovanadate (Santa Cruz Biotechnology, Santa Cruz, CA, USA). Protein was quantified by Micro BCA Protein Assay Kit (Thermo Fisher Scientific) before 7.5% SDS-PAGE and transfer to nitrocellulose. Membranes were blocked with 5% bovine serum albumin (BSA; Sigma-Aldrich)/0.5% Tween-20 (Sigma-Aldrich)/PBS for 1 h, RT, followed by incubation with primary antibodies diluted in 1% BSA/0.1% Tween-20/PBS, overnight at 4 °C. Primary antibodies were: anti-phosphoY204/Y187 ERK1/2 (1:1000); anti-ERK1/2 (1:1000); anti-phosphoY861 FAK (1:1000); anti-FAK (1:2000). Immunoblotting for anti-GAPDH (1:2500) was used as a protein loading control. Following wash steps, membranes were incubated in goat anti-rabbit IgG H&L secondary antibody (horseradish peroxidase, HRP conjugate, […]) (Abcam; 1:5000 dilution, 1% BSA/0.1% Tween-20/PBS). Detection was performed using Immobilon reagent (Merck Millipore, Burlington, MA, USA) and imaged using a Tanon 5500 Chemiluminescent Imaging System (Tanon, Shanghai, China).

[3] = test system: pro-MMP2; assay: Gelatinase zymography pro-MMP2; type: cell-based, mouse; settings: 48 h, TGF-β1 10 ng/mL, AF38Pep 10 µg/mL, conditioned medium
Protocol: Conditioned media were collected from cells incubated with serum-free medium (SFM) alone, SFM containing 10 ng/mL TGF-β1, SFM containing 10 µg/mL AF38Pep, or SFM containing both 10 ng/mL TGF-β1 and 10 µg/mL AF38Pep. Conditioned medium was concentrated 10× by filtrating spin columns (Amicon Ultra-4 10 kDa MWCO, Merck Millipore) and protein was quantified by Micro BCA Protein Assay Kit (Thermo Fisher Scientific). A 1.5 mm thick 10% nonreducing acrylamide gel containing gelatin was prepared and 10 µg of sample in 5 × nonreducing buffer was loaded into the gel lanes. The gel was run at 100 V until the protein entered the stacking gel layer, then the voltage was increased to 150 V until the marker achieved resolved band separation. The gels were then washed twice for 30 min using wash buffer to remove SDS and renature the enzymes. Gels were further rinsed for 5–10 min in incubation buffer at 37 °C with agitation to activate the gelatinase reaction. Fresh incubation buffer was added, and the gels were incubated overnight at 37 °C. Gels were stained with staining solution containing Coomassie blue for between 30 min to 1 h, before rinsing with ddH2O and subsequent incubation with de-stain solution until bands could be observed. The gels were transferred to 2% acetic acid and rehydrated overnight for imaging by scanner.

[4] = test system: Tgfb1 mRNA in NIH/3T3 fibroblasts; assay: qRT-PCR Tgfb1 mRNA; type: cell-based, mouse; settings: 48 h, TGF-β1 10 ng/mL
Protocol: (§1) Reverse transcription (RT) and real-time quantitative PCR (qRT-PCR) were used to assess ACTA2/Acta2, Col1a1, Col3a1, Fn1, Eda-Fn1, Mmp9, Tgfb1, Ltbp1, Hic5, and Mrtfa mRNA expressions. Custom PCR primers were designed in-house (Table 2) and then synthesized by BGI (Beijing, China). Cells were grown in 6-well culture plates and washed with phosphate buffered saline (PBS) before lysis with TRIzon Reagent (CWBio, Beijing, China) and total RNA purification according to the manufacturer’s protocol. Reverse transcription was carried using the TransScript First-Strand cDNA Synthesis SuperMix kit according to the manufacturer’s protocol (TransGen, Beijing, China), using the random primer method for the initiation of cDNA synthesis. Nuclease-free H2O replaced the RNA sample to serve as a negative control for the reverse transcription reaction. For qRT-PCR, 10 µL 2× TransStart Top Green qPCR SuperMix was added to each well of a 96-well PCR plate containing 0.4 µL forward primer, 0.4 µL reverse primer, […], and nuclease-free water to a total volume of 20 µL. The qRT-PCR reaction was completed using a CFX96 Real-Time PCR Detection System (Bio-Rad Laboratories, Hercules, CA, USA). Amplification used the following parameters: 94 °C for 30 s, followed by 40 cycles of 94 °C for 5 s, 55 °C for 15 s, 72 °C for 10 s, and then a dissociation stage (melt-curve). […]

[5] = test system: Fn1 mRNA; assay: qRT-PCR Fn1 mRNA; type: cell-based, mouse
Protocol: as §1

[6] = test system: Eda-Fn1 mRNA; assay: qRT-PCR Eda-Fn1 mRNA; type: cell-based, mouse
Protocol: as §1

[7] = test system: F-actin in NIH/3T3 fibroblasts; assay: F-actin staining; type: cell-based, mouse; settings: 48 h, TGF-β1 10 ng/mL, AF38Pep 10 µg/mL
Protocol: Cells were grown to 40% confluence in 8-well glass chamber slides (Nunc, Thermo Fisher Scientific), prior to growth arrest and treatment. Cells were washed with PBS before fixation in 4% paraformaldehyde for 10 min at room temperature. Next, cells were permeabilized with 0.1% (v/v) Triton X-100 in PBS for 10 min at room temperature. For visualization of ECM, cells were fixed with 100% ice-cold methanol for 8 min at −20 °C. Slides were washed with PBS and blocked with 1% goat serum (TBD Science, Tianjin, China) for 30 min before washing with 0.1% (w/v) BSA in PBS. Subsequently, slides were incubated with monoclonal mouse anti-α-SMA antibody (Sigma-Aldrich, 1:50) diluted in 0.1% BSA-PBS, overnight at 4 °C. After further wash steps, slides were incubated with goat anti-mouse IgG CF-488 secondary antibody (Abcam, 1:1000) in 0.1% BSA-PBS for 1 h at room temperature and under darkness. For F-actin visualization, after fixation and permeabilization; cells were incubated with phalloidin conjugated to FITC (Sigma-Aldrich) in 0.1% BSA-PBS, overnight at 4 °C. Cells were then mounted in DAPI Fluoromount-G (Thermo Fisher Scientific) and imaged using a Zeiss Axio Imager Z1 UV fluorescence microscope (Zeiss, Jena, Germany) and a Leica TCS SP5 laser scanning confocal microscope (Leica Biosystems, Baden-Württemberg, Germany).

**Q.** What does the source list for “VMPYISTTPAKPCTSENCGNSWYGGFKSKNENKIYFIN (disulfide 13-18 (inferred)) [AF38Pep]”?
**A.** VCAM1 total protein [1]: remained unaffected; ERK1/2 phosphorylation ([2]; 1 h): significantly suppressed; ERK1/2 phosphorylation ([2]; 12 h): not prevented; pro-MMP2 gelatinase activity [3]: suppressed activity levels; TGF-β1 mRNA expression [4]: attenuated; fibronectin mRNA expression ([5]; 72 h, TGF-β1 + AF38Pep): all inhibited; fibronectin mRNA expression ([5]; by 48 h, vs TGF-β1-only): significant attenuation; EDA-FN splice variant mRNA expression ([6]; 72 h, TGF-β1 + AF38Pep): all inhibited; EDA-FN splice variant mRNA expression ([6]; by 48 h, vs TGF-β1-only): significant attenuation; F-actin fiber assembly [7]: cellular actin reassembly into F-actin fibers still occurred

— paper PMC7913925, “Design and Evaluation of a Polypeptide That Mimics the Integrin Binding Site for EDA Fibronectin to Block Profibrotic Cell Activity” (International Journal of Molecular Sciences, 2021)
